Results reported in the NIST ThermoML archive (doi:10.1021/je200964m).
± gives the expanded uncertainty stated by the source.

Tests used:
[1] = mn = molality of the nth substance listed, in mol/kg; conditions: 298.15 K, 100 kPa, Liquid, Vibrating tube method
[2] = molar heat capacity at constant pressure; mn = molality of the nth substance listed, in mol/kg; conditions: 298.15 K, 100 kPa, Liquid

O=C[O-].[Na+] [sodium methanoate] + O
mass density ([1]; m1 = 0.00974): 997.482 ± 0.059 kg/m3 | mass density ([1]; m1 = 0.01004): 997.512 ± 0.059 kg/m3 | mass density ([1]; m1 = 0.02003): 997.907 ± 0.06 kg/m3 | mass density ([1]; m1 = 0.02065): 997.932 ± 0.06 kg/m3 | mass density ([1]; m1 = 0.04058): 998.75 ± 0.06 kg/m3 | mass density ([1]; m1 = 0.04064): 998.753 ± 0.06 kg/m3 | mass density ([1]; m1 = 0.06027): 999.589 ± 0.059 kg/m3 | mass density ([1]; m1 = 0.06153): 999.685 ± 0.059 kg/m3 | mass density ([1]; m1 = 0.08026): 1000.45 ± 0.06 kg/m3 | mass density ([1]; m1 = 0.08098): 1000.47 ± 0.06 kg/m3 | mass density ([1]; m1 = 0.1002): 1001.25 ± 0.059 kg/m3 | mass density ([1]; m1 = 0.1006): 1001.27 ± 0.059 kg/m3 | mass density ([1]; m1 = 0.1998): 1005.36 ± 0.06 kg/m3 | mass density ([1]; m1 = 0.25): 1007.39 ± 0.06 kg/m3 | mass density ([1]; m1 = 0.5003): 1017.41 ± 0.062 kg/m3 | mass density ([1]; m1 = 0.5005): 1017.34 ± 0.062 kg/m3 | mass density ([1]; m1 = 0.75): 1027.24 ± 0.063 kg/m3 | mass density ([1]; m1 = 0.7507): 1027.17 ± 0.063 kg/m3 | mass density ([1]; m1 = 1): 1036.61 ± 0.065 kg/m3 | mass density ([1]; m1 = 1.008): 1037.01 ± 0.064 kg/m3 | mass density ([1]; m1 = 2): 1072.42 ± 0.077 kg/m3 | mass density ([1]; m1 = 2.576): 1092.07 ± 0.084 kg/m3 | mass density ([1]; m1 = 3.968): 1134.81 ± 0.1 kg/m3 | mass density ([1]; m1 = 4): 1135.38 ± 0.1 kg/m3 | mass density ([1]; m1 = 5.998): 1188.91 ± 0.14 kg/m3 | mass density ([1]; m1 = 6.036): 1190.2 ± 0.14 kg/m3 | mass density ([1]; m1 = 8.011): 1235.13 ± 0.17 kg/m3 | mass density ([1]; m1 = 10.01): 1275.62 ± 0.2 kg/m3 | molar heat capacity at constant pressure ([2]; m1 = 0.00974): 74.69 ± 0.25 J/K/mol | molar heat capacity at constant pressure ([2]; m1 = 0.01004): 74.71 ± 0.25 J/K/mol | molar heat capacity at constant pressure ([2]; m1 = 0.02003): 74.79 ± 0.25 J/K/mol | molar heat capacity at constant pressure ([2]; m1 = 0.02065): 74.7 ± 0.25 J/K/mol | molar heat capacity at constant pressure ([2]; m1 = 0.04058): 74.71 ± 0.25 J/K/mol | molar heat capacity at constant pressure ([2]; m1 = 0.04064): 74.79 ± 0.25 J/K/mol | molar heat capacity at constant pressure ([2]; m1 = 0.06027): 74.76 ± 0.25 J/K/mol | molar heat capacity at constant pressure ([2]; m1 = 0.06153): 74.66 ± 0.25 J/K/mol | molar heat capacity at constant pressure ([2]; m1 = 0.08026): 74.73 ± 0.25 J/K/mol | molar heat capacity at constant pressure ([2]; m1 = 0.08098): 74.63 ± 0.25 J/K/mol | molar heat capacity at constant pressure ([2]; m1 = 0.1002): 74.72 ± 0.25 J/K/mol | molar heat capacity at constant pressure ([2]; m1 = 0.1006): 74.62 ± 0.25 J/K/mol | molar heat capacity at constant pressure ([2]; m1 = 0.1998): 74.62 ± 0.25 J/K/mol | molar heat capacity at constant pressure ([2]; m1 = 0.25): 74.49 ± 0.25 J/K/mol | molar heat capacity at constant pressure ([2]; m1 = 0.5003): 74.3 ± 0.25 J/K/mol | molar heat capacity at constant pressure ([2]; m1 = 0.5005): 74.41 ± 0.25 J/K/mol | molar heat capacity at constant pressure ([2]; m1 = 0.75): 74.33 ± 0.25 J/K/mol | molar heat capacity at constant pressure ([2]; m1 = 0.7507): 74.18 ± 0.24 J/K/mol | molar heat capacity at constant pressure ([2]; m1 = 1): 73.86 ± 0.24 J/K/mol | molar heat capacity at constant pressure ([2]; m1 = 1.008): 74.26 ± 0.25 J/K/mol | molar heat capacity at constant pressure ([2]; m1 = 2): 74.32 ± 0.24 J/K/mol | molar heat capacity at constant pressure ([2]; m1 = 2.576): 75.46 ± 0.25 J/K/mol | molar heat capacity at constant pressure ([2]; m1 = 3.968): 75.93 ± 0.25 J/K/mol | molar heat capacity at constant pressure ([2]; m1 = 4): 75.98 ± 0.25 J/K/mol | molar heat capacity at constant pressure ([2]; m1 = 5.998): 78.43 ± 0.26 J/K/mol | molar heat capacity at constant pressure ([2]; m1 = 6.036): 77.81 ± 0.26 J/K/mol | molar heat capacity at constant pressure ([2]; m1 = 8.011): 81.13 ± 0.27 J/K/mol | molar heat capacity at constant pressure ([2]; m1 = 10.01): 84.02 ± 0.28 J/K/mol

CCCC(=O)[O-].[Na+] [sodium butyrate] + O
mass density ([1]; m1 = 0.01976): 997.868 ± 0.059 kg/m3 | mass density ([1]; m1 = 0.04005): 998.697 ± 0.059 kg/m3 | mass density ([1]; m1 = 0.06005): 999.507 ± 0.058 kg/m3 | mass density ([1]; m1 = 0.08053): 1000.32 ± 0.058 kg/m3 | mass density ([1]; m1 = 0.102): 1001.17 ± 0.058 kg/m3 | mass density ([1]; m1 = 0.2495): 1006.98 ± 0.059 kg/m3 | mass density ([1]; m1 = 0.4997): 1016.49 ± 0.06 kg/m3 | mass density ([1]; m1 = 0.7508): 1025.47 ± 0.061 kg/m3 | mass density ([1]; m1 = 1): 1034.04 ± 0.062 kg/m3 | mass density ([1]; m1 = 1.993): 1064.55 ± 0.073 kg/m3 | mass density ([1]; m1 = 4): 1109.06 ± 0.1 kg/m3 | mass density ([1]; m1 = 5.997): 1136.24 ± 0.13 kg/m3 | molar heat capacity at constant pressure ([2]; Flow calorimetry, m1 = 0.01976): 75.41 ± 0.14 J/K/mol | molar heat capacity at constant pressure ([2]; Flow calorimetry, m1 = 0.04005): 75.47 ± 0.14 J/K/mol | molar heat capacity at constant pressure ([2]; Flow calorimetry, m1 = 0.06005): 75.54 ± 0.14 J/K/mol | molar heat capacity at constant pressure ([2]; Flow calorimetry, m1 = 0.08053): 75.61 ± 0.14 J/K/mol | molar heat capacity at constant pressure ([2]; Flow calorimetry, m1 = 0.102): 75.68 ± 0.14 J/K/mol | molar heat capacity at constant pressure ([2]; Flow calorimetry, m1 = 0.2495): 76.19 ± 0.14 J/K/mol | molar heat capacity at constant pressure ([2]; Flow calorimetry, m1 = 0.4997): 77.12 ± 0.14 J/K/mol | molar heat capacity at constant pressure ([2]; Flow calorimetry, m1 = 0.7508): 78.09 ± 0.14 J/K/mol | molar heat capacity at constant pressure ([2]; Flow calorimetry, m1 = 1): 79.11 ± 0.14 J/K/mol | molar heat capacity at constant pressure ([2]; Flow calorimetry, m1 = 1.993): 83.42 ± 0.15 J/K/mol | molar heat capacity at constant pressure ([2]; Flow calorimetry, m1 = 4): 91.23 ± 0.17 J/K/mol | molar heat capacity at constant pressure ([2]; Flow calorimetry, m1 = 5.997): 97.99 ± 0.17 J/K/mol
